Experimental data taken from patent US20240408180A1, “IONIC LIQUIDS FOR DRUG DELIVERY” (PRESIDENT AND FELLOWS OF HARVARD COLLEGE, priority 2021, published 2024).
Blank lines part the entries; values can stand above or below the substance they belong to.

Columns and labels:
antibody [1] = experiment: Antibody aggregation by SDS-PAGE; type: physicochemical; details: one hour at room temperature; versus control
Description: (§1) Antibody stability was next tested. Circular dichroism and SDS-PAGE were used to assess antibody stability (FIG. 5). […] Additionally, SDS-PAGE was used to assess whether acetylcholine caused aggregation (of particular importance for large beta-sheet biologics like antibodies). […] Both CD and SDS-PAGE were performed after incubation at room temperature for one hour.

dendritic cell line = experiment: In vitro transfection with mRNA nanoparticles coated with DES; type: cell-based; details: 4 hours incubation, flow cytometry
Description: IL delivery of mRNA in vitro was assessed. The in vitro transfection experiments were performed in a dendritic cell line with mRNA nanoparticles and indicate that acetylcholine hexenoic acid DES can enhance mRNA treatments. The particles were incubated with acetylcholine DES solutions to “coat” the particles. The cells were incubated with the particles for the 4 hours before analyzing with flow cytometry.

Type I human collagen = target: T1, Type I human collagen (Homo sapiens, UniProt P02452+P08123); experiment: Fluorescence polarization of Cy5.5-labeled insulin mixed with collagen; type: binding; details: Cy5.5-labeled insulin in aCH versus saline control
T1 construct: purchased Advanced BioMatrix (Carlsbad, CA)
Description: The ability of SPADE to mitigate the interactions of proteins with ECM was assessed using the lead DES, aCH. A schematic representation of the hypothesized mechanism is depicted in FIG. 8A. SPADE (right) is hypothesized to decrease non-specific binding between administered therapeutic proteins and subcutaneous extracellular proteins such as collagen to allow for faster and greater absorption of protein biologics. To test this hypothesis, fluorescence polarization (FP) was performed and dynamic light scattering (DLS) utilized to determine the degree of collagen-insulin association. […] The average polarization was 1.5 times higher for the control group than the SPADE group. To further confirm the FP results and compare against Humalog, DLS was used to measure the average particle diameter (z-avg) after mixing insulin formulations with collagen, as the z-avg for insulin-bound collagen would increase with fewer unbound insulin molecules remaining and only the collagen or collagen-insulin complex being detected. The initial average z-avg for both the Humalog- and SPADE-insulin-collagen mixtures were approximately 100 nm. […]
Physical stability of the formulations in the presence of collagen was further assessed using fluorescence polarization (FP). […] When insulin is fluorescently labeled and excited with polarized light the perpendicular and parallel polarized light emission can be measured. […]

rituximab [2] = experiment: SPADE-mAb stability by circular dichroism; type: physicochemical; details: 37 C for 24 hours
Description: (§2) Described herein the exploration of whether SPADE can also enhance the absorption of a large protein biologic, namely monoclonal antibody rituximab (SPADE-mAb), that would benefit from greater absorption from subcutaneous administration. Due to the clinical requirement of higher dosing for subcutaneous antibody formulation compared to insulin, we first assessed DES concentration for stable SPADE formulation with rituximab using SDS-PAGE and CD. Formulations were prepared with various DES concentrations and consistent rituximab concentrations and incubated at 37° C. for 2 and 24 hours. After incubation, the samples were dialyzed against sodium phosphate to remove DES, and the resulting samples were diluted to the same concentration via UV-Vis spectrophotometry before SDS-PAGE and CD analyses. […] To further confirm this CD was used to assess the secondary structure of the samples that were incubated for 24 hours.
Protein Stability Assessment Using Circular Dichroism and SDS-PAGE. Insulin and antibody formulations were incubated at 37° C. for one hour and subsequently dialyzed against 10 mM Sodium Phosphate pH 7.4. In preparation for circular dichroism (CD) and SDS-PAGE, the post-dialysis concentration was measured with UV Spectrophotometry (Thermo Scientific NanoDrop One) and adjusted to 200 μg/mL. […] Mean ellipticity was measured from 190 to 250 nm.

insulin [3] = target: T2, insulin (Homo sapiens, UniProt P01308); experiment: Stressed aging test of insulin-DES formulations (transmittance); type: physicochemical; details: 50 hours at 37 C with constant shaking
T2 construct: in this case insulin around 5.8 kDa; purchased Sigma Aldrich (St. Louis, MO)
Description: Successful dissolution of insulin was determined by the turbidity of the formulation, assessed by converting absorbance at 540 nm to transmittance.^16 The percent transmittance threshold for the successful formulation was set at 80% as this was the mean transmittance for the clinical comparator (Humalog). Low transmittance values are indicative of insoluble insulin aggregates. All but two formulations met this criterion (FIG. 13). To further screen the remaining DES formulations, a stressed aging test was performed to determine their stability for 50 hours at 37° C. with constant shaking.
(§3) The insulin-DES formations were first analyzed for initial transmittance to confirm that there was no insulin aggregation immediately after formulation preparation. Subsequently, formulations that passed initial screening were plated in a black-walled 96 well plate (replicates of three) and subjected to a stressed aging assay in which the plate was incubated at 37° C. with constant shaking. Absorbance readings were taken every 15 minutes for 50 hours to assess the change in transmittance over time. For cold chain stability, formulations were tested in a similar manner, without constant shaking, at 4° C. for 28 days.

insulin [4] = target: T2, insulin; experiment: Circular dichroism of insulin-DES formulations; type: physicochemical; details: 37 C for two hours
Description: (§4) The final screening was performed to assess cold-chain stability and confirm monomer conformational stability. […] The stability of hexenoate-based formulations was further confirmed by assessing the protein's secondary structure through circular dichroism (CD). […] CD spectra integrity was also confirmed by measuring the high-tension voltage, which was maintained below 500 V for the relevant insulin CD wavelengths (FIG. 14).
Protein Stability Assessment Using Circular Dichroism and SDS-PAGE. […] In preparation for circular dichroism (CD) and SDS-PAGE, the post-dialysis concentration was measured with UV Spectrophotometry (Thermo Scientific NanoDrop One) and adjusted to 200 μg/mL. CD was performed by loading quartz cuvettes (Starna Cells Spectrosil Quartz 1-Q-1), with 200 μL of the sample, into a CD spectrophotometer (Jasco J-815). Mean ellipticity was measured from 190 to 250 nm.

insulin [5] = target: T2, insulin; experiment: Circular dichroism of insulin secondary structure in ILs; type: physicochemical; details: one hour at room temperature and at 37 C; insulin ~6 U/mL (0.2 mg/mL); versus saline negative control
Description: Circular dichroism was used to assess insulin secondary structure (FIG. 2). The experiment was performed after incubation at room temperature and at 37° C. (physiological temperature) for one hour. This was done to assess whether the heat change associated with subcutaneous injection may affect the insulin structure. […] “aCG” refers to acetylcholine glycolic acid and “aCH” refers to acetylcholine hexenoic acid. Insulin concentration was ˜6 U/mL (0.2 mg/mL).

rituximab [6] = experiment: SPADE-mAb stability by SDS-PAGE; type: physicochemical; details: for rituximab stability by SDS-PAGE: 37 C for 2 and 24 hours
Description: as §2
Protein Stability Assessment Using Circular Dichroism and SDS-PAGE. Insulin and antibody formulations were incubated at 37° C. for one hour and subsequently dialyzed against 10 mM Sodium Phosphate pH 7.4. In preparation for circular dichroism (CD) and SDS-PAGE, the post-dialysis concentration was measured with UV Spectrophotometry (Thermo Scientific NanoDrop One) and adjusted to 200 μg/mL. CD was performed by loading quartz cuvettes (Starna Cells Spectrosil Quartz 1-Q-1), with 200 μL of the sample, into a CD spectrophotometer (Jasco J-815). Mean ellipticity was measured from 190 to 250 nm.
To assess antibody aggregation, SDS-PAGE was performed using vertical gel electrophoresis (BioRad Mini-PROTEAN Tetra Cell) loaded with precast polyacrylamide gels (BioRad TGX 4-15%) according to the manufacturer protocol. To form SDS complexes, samples were incubated in 1× Lammeli buffer for 10 minutes at 70° C. before loading in the gel. After 30 minutes of electrophoresis, the gel was removed and protein bands stained with Coumassie dye.

antibody [7] = experiment: Antibody stability by circular dichroism; type: physicochemical; details: one hour at room temperature; versus fresh antibody control
Description: as §1

insulin [8] = target: T2, insulin; experiment: Cold-chain stability of insulin-DES formulations (transmittance); type: physicochemical; details: 4 C over 28 days
Description: as §4, §3

[9] = target: Type I Human Collagen (human) (UniProt P02452); experiment: dynamic light scattering after mixing the insulin formulation with collagen
[10] = target: Type I Human Collagen (human) (UniProt P02452); experiment: dynamic light scattering time course after mixing with collagen
[11] = rat, in vivo, 10 mg/kg; cited from earlier work
[12] = In vivo PK of insulin in ILs after subcutaneous injection; details: rats, insulin 1 U/kg, non-fasted
[13] = target: Type I Human Collagen (human) (UniProt P02452); experiment: fluorescence polarization of Cy5.5-insulin mixed with Type I human collagen

T2 sequence (P01308 25-54 limits assumed, species assumed): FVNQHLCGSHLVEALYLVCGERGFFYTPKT
T2 sequence (P01308 90-110 limits assumed, species assumed): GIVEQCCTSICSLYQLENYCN
Chain of Type I Human Collagen (human) (P02452 179-1192 limits assumed, chain 1 of 2): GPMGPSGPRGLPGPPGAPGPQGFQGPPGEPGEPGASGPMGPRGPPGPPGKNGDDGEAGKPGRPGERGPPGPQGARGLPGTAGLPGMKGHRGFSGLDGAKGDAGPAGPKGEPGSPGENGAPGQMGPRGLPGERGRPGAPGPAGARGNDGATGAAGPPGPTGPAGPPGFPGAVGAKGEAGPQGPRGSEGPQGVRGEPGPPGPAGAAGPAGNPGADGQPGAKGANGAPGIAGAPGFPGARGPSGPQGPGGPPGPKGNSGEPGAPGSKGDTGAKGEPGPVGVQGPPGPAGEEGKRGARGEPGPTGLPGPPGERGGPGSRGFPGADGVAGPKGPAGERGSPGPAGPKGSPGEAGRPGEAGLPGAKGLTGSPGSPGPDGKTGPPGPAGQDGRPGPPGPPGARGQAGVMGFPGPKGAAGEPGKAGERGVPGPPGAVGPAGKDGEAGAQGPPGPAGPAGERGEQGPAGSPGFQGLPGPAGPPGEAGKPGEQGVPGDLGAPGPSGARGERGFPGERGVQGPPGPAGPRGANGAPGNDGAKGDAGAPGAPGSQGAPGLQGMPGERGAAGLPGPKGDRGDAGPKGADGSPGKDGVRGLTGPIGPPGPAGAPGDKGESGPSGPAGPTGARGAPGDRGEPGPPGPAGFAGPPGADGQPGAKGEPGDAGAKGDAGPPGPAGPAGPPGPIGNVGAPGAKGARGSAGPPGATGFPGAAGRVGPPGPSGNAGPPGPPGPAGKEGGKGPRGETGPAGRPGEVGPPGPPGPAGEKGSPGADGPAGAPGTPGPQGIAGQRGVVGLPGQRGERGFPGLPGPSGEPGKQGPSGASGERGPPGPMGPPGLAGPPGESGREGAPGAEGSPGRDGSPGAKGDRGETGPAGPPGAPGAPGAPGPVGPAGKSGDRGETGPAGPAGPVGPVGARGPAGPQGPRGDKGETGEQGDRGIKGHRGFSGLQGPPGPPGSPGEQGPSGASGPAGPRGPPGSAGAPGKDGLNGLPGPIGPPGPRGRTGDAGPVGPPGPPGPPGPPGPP
Chain of Type I Human Collagen (human) (P08123 91-1104 limits assumed, chain 2 of 2, further chain): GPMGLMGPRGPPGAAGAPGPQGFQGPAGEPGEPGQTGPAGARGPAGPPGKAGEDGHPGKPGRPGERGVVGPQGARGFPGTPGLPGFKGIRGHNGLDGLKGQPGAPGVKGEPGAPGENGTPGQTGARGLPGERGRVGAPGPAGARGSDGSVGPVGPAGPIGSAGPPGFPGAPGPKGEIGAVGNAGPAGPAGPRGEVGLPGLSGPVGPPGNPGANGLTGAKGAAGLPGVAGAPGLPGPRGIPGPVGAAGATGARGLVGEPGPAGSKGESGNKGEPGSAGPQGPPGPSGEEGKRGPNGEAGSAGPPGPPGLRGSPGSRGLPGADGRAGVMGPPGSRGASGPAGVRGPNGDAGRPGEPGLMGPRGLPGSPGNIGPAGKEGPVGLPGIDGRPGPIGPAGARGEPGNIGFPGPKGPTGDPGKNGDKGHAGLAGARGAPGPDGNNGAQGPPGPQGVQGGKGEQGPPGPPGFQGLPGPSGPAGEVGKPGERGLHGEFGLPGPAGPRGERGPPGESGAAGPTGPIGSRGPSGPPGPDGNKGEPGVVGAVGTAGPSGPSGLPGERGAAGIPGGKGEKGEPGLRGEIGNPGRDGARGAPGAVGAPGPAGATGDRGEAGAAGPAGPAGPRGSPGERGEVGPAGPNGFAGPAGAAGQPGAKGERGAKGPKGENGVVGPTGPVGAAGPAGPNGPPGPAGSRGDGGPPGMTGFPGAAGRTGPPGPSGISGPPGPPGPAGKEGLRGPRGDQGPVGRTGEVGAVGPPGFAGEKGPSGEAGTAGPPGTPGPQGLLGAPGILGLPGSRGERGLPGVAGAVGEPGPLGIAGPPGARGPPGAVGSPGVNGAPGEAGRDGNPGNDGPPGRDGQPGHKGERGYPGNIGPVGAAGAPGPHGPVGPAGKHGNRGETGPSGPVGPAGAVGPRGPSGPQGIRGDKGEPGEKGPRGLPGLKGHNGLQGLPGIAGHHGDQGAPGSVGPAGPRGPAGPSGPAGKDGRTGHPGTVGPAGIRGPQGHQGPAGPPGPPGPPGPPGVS
Chain of Cy 5.5 fluorescently-labeled insulin (ligand) (P01308 25-54): as the sequence (P01308 25-54 limits assumed, species assumed) above
T1 sequence (P02452 162-1218 limits assumed): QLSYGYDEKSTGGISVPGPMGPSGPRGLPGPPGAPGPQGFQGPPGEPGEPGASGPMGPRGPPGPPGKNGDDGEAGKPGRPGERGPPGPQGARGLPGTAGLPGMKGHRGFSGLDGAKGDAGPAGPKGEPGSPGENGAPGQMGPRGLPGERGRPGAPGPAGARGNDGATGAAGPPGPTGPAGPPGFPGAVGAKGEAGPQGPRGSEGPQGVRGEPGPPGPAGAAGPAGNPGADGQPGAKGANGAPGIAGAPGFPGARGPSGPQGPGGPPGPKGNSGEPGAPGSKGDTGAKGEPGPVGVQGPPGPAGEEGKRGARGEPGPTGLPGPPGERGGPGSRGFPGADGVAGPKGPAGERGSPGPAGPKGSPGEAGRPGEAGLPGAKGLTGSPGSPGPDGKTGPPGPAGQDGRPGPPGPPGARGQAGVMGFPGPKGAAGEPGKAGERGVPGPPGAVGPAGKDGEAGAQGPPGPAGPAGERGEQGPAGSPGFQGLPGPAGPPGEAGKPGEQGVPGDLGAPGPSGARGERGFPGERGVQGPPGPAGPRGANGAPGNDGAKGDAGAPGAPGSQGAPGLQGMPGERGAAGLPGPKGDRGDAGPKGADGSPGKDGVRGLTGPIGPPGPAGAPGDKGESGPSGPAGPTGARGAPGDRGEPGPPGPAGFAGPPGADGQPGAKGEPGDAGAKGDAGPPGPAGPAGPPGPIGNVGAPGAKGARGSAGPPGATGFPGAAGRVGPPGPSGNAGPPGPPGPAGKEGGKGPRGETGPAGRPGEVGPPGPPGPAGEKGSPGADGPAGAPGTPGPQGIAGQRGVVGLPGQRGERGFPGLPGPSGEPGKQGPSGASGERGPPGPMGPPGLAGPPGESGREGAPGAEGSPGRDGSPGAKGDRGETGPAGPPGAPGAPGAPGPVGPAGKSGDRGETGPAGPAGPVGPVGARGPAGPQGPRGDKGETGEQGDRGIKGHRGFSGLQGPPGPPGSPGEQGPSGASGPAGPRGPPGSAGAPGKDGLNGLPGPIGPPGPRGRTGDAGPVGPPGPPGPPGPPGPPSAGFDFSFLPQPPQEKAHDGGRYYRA
T1 sequence (P08123 80-1119 limits assumed): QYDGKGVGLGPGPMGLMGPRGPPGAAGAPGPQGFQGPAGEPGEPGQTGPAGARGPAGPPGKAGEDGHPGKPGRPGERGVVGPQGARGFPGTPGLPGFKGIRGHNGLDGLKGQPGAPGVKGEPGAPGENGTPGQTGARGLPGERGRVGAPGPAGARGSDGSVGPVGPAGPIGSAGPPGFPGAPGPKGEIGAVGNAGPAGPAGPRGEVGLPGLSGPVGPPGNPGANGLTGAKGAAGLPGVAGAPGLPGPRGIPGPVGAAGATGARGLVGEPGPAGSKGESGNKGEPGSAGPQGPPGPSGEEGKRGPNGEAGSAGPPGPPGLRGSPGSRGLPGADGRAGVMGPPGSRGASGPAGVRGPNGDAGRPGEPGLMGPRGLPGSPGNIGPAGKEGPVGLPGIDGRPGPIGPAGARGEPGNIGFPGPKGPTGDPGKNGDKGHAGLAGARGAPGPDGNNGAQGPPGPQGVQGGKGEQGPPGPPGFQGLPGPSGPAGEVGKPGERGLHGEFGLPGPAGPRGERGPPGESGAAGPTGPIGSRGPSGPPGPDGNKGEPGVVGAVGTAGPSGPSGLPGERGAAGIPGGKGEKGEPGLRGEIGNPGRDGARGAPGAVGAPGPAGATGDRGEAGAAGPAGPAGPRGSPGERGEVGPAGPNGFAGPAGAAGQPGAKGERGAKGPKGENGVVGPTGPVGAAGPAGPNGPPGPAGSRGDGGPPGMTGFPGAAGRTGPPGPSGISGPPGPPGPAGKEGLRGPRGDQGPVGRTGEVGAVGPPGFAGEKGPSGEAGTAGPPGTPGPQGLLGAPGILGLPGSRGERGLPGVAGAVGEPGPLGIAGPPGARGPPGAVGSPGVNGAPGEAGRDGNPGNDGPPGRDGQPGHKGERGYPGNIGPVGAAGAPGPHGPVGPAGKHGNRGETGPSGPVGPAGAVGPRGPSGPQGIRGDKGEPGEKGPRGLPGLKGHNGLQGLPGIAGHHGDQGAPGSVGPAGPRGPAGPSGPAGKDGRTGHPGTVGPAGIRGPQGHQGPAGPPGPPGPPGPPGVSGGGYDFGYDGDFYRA

Substance: acetylcholinium hexenoate DES [aCH]
antibody aggregation (SDS-PAGE) (antibody [1]): looked the same as the control
mean fluorescent intensity (GFP expression) (dendritic cell line): higher
percent of cells expressing GFP (dendritic cell line): increased
non-specific insulin-collagen binding (fluorescence polarization) (Type I human collagen): inhibits non-specific insulin-collagen binding
rituximab secondary structure by CD versus control (rituximab [2]; 10% (v/v) DES): shift in mean ellipticity
rituximab secondary structure by CD versus control (rituximab [2]; DES concentrations other than 10% (v/v)): none of the other DES concentrations experienced this shift
outcome of stressed aging test (insulin [3]): viable
CD spectra of insulin versus control insulin in sodium phosphate buffer (insulin [4]): matched that of the control insulin
insulin secondary structure (circular dichroism curves) (insulin [5]): match the saline negative control groups
rituximab stability by SDS-PAGE (rituximab [6]; 10% (v/v) DES): faint band further up the gel
appropriate DES concentration for the SPADE-mAb formulation (from stability studies) (rituximab [6]; SDS-PAGE and CD stability studies): 5 % (v/v)
rituximab stability by SDS-PAGE (rituximab [6]; all DES concentrations apart from 10% (v/v)): stable
secondary structure of the antibody (circular dichroism) (antibody [7]): not affected
cold-chain stability (insulin [8]): stable through Day 28

Substance: hyaluronidase
increase of rituximab absorption [11]: 91%

Substance: cholinium propionate DES [CP]
outcome of stressed aging test (insulin [3]): viable

Substance: acetylcholinium priopionate DES [aCP]
outcome of stressed aging test (insulin [3]): viable

Substance: acetylcholinium glycolate DES [aCG]
insulin secondary structure (circular dichroism curves) (insulin [5]): match the saline negative control groups
Cmax of serum insulin, greater than the choline variant [12]: 50%

The next lines start with results.

CD spectra of insulin versus control insulin in sodium phosphate buffer (insulin [4]): matched that of the control insulin
cold-chain stability (insulin [8]): stable through Day 28
Substance: cholinium hexenoate DES
outcome of stressed aging test (insulin [3]): viable

initial average particle diameter (z-avg) of the mixture with collagen [9]: 100 nm
average particle diameter (z-avg) of the mixture with collagen over 60 min [10]: 100 nm
Substance: regular insulin formulated in aCH (SPADE-insulin) (from UniProt P01308 25-54; P01308 90-110) (ligand)

initial average particle diameter (z-avg) of the mixture with collagen [9]: 100 nm
average particle diameter (z-avg) of the mixture with collagen over 60 min [10]: > 5000 nm
Substance: Humalog (insulin lispro) (ligand)

fold average polarization, control (saline) over SPADE (aCH) [13]: 1.5 fold
Substance: Cy 5.5 fluorescently-labeled insulin (ligand)
